For 23 compounds, IC50 results are on record in patent US20240174648A1, “Small Molecule Compound” (Technoderma Medicines Pte Ltd, priority 2019, published 2024).

The IC50 is the concentration that inhibits the measured activity by half. Low values mean greater potency, high ones weaker potency.

Assay [1] deals with Tyk2 (Homo sapiens, UniProt P29597). Nature of the assay: JAK kinase inhibition assay (EZ Reader, peptide substrate phosphorylation) - Tyk2. In kind it is biochemical. The conditions noted are these: Tyk2 kinase 1 nM; 8 concentration points, max 10 μM. The source says:
(§1) Assay for Identifying Inhibitory Effects of Compounds on JAK Kinases
(§2) Janus kinases (JAK), including JAK1, JAK2, JAK3 and Tyk2, transduce a cytokine-mediated signal through a JAK-STAT pathway. The kinases are 120-140 kDa in size and have 7 determined homology regions: JH1 to JH7. JH1 is an important region for enzymatic activity and has typical characteristics of tyrosine kinases. Phosphorylation of tyrosine leads to a change in the conformation of JAK protein, thereby promoting binding of substrate. The JAK-STAT system includes three main parts: receptors penetrating a cell membrane, Janus kinases binding to the receptors, and signal transducers and activators of transcription (STAT) for transmitting signals to a nucleus and DNA. When cytokines bind to receptors, JAK phosphorylates the receptors and attracts STAT proteins. The STAT proteins are also phosphorylated and combined with one another to form dimers. The dimers enter the nucleus and bind to DNA, thereby leading to gene transcription.
(§3) EZ Reader from PerkinElmer can be used to detect the phosphorylation of polypeptide substrates catalyzed by kinases. The device is based on microfluidic techniques, and can directly detect fluorescently labeled substrates and products. The separation step is achieved by controlling the pressure and electric field strength in the microfluidic chip. In kinase assays, a product conversion ratio is usually controlled to be 20-30%. A biological test is used to identify inhibitory effects of compounds on JAKs.
(§4) Compound powder was dissolved in DMSO, sealed and stored in a freezer under −20° C. The in-house compound Ref1 was used as a positive control for JAK1, JAK2 and Tyk2 tests, and Ref2 was used as a positive control for JAK3 tests.
(§5) S2.8. Assay buffer: 20 mM HEPES buffer, pH 7.4, 10 mM magnesium chloride, 0.01% bovine serum albumin BSA, 0.0005% Tween-20 and 1 mM dithiothreitol solution.
(§6) S2.9. Stop buffer: 180 mM HEPES buffer, 20 mM ethylenediaminetetraacetic acid and 0.2% coating reagent 3.
(§7) S2.10. Separation buffer: 100 mM HEPES buffer, 10 mM ethylenediaminetetraacetic acid, 0.0005% Tween 20, 0.1% coating reagent 3 and 1% dimethyl sulfoxide.
(§8) The compound was dissolved in dimethyl sulfoxide and diluted to 10 mM concentration, a certain volume of solution was taken and diluted to 0.6 mM concentration, 10 μL of the 0.6 mM dilution was added to a 384-well microplate, and then was diluted 3-fold with a total of 8 concentration points.
(§9) Positive control (HPE1): Ref1, final concentration: 10 μM […]
(§10) Negative control (ZPE): DMSO, final content: 1.6%
(§11) Compounds: maximum final concentration: 10 μM; 3-fold dilution, 8 concentration points and 2 duplicates.
(§12) S4.1. 250 nL of the compound was added to each well of the assay microplate by using ECHO, and centrifuged at 1000 rpm for 1 minute.
(§13) S4.2. 5 μL of the assay buffer was added and agitated for a few seconds to fully dissolve the compound.
(§14) S4.3. 5 μL of 3× substrate solution and 5 μL of 3× kinase solution were added and centrifuged at 800 rpm for 1 minute.
(§15) S4.4. Final concentrations of JAK1, JAK2, JAK3 and Tyk2 kinases in the reaction system were 20 nM, 1 nM, 1 nM and 1 nM respectively.
(§16) S4.5. Incubation at room temperature, where kinases had time differences, and different batches of kinases had time differences.
(§17) S4.6. When 20%-30% of the reaction completed, 15 μL of stop buffer was added to stop the reaction, and centrifuged at 1000 rpm for 2 minutes.
(§18) S4.7. The microplates were placed on EZ Reader for reading.
(§19) S4.8. Readings on EZ Reader were calculated by using a peak height, where product conversion ratio (%)=product/(product+substrate)*100.
(§20) 5. Data Processing: IC50 calculation
(§21) A graphing software Xlfit was used to form a concentration curve of the test compound, and an IC50 value was calculated.
(§22) “A” means “≥10 μM”; “B” means “≥1 μM and <10 μM”; “C” means “≥0.1 μM and <1 μM”; and “D” means “<0.1 μM”.

Assay [2] deals with JAK1 (Homo sapiens, UniProt P23458). Put plainly: JAK kinase inhibition assay (EZ Reader, peptide substrate phosphorylation) - JAK1. Type of assay: biochemical. The conditions noted are these: JAK1 kinase 20 nM; 8 concentration points, max 10 μM.
Chain of JAK1 (P23458 whole entry): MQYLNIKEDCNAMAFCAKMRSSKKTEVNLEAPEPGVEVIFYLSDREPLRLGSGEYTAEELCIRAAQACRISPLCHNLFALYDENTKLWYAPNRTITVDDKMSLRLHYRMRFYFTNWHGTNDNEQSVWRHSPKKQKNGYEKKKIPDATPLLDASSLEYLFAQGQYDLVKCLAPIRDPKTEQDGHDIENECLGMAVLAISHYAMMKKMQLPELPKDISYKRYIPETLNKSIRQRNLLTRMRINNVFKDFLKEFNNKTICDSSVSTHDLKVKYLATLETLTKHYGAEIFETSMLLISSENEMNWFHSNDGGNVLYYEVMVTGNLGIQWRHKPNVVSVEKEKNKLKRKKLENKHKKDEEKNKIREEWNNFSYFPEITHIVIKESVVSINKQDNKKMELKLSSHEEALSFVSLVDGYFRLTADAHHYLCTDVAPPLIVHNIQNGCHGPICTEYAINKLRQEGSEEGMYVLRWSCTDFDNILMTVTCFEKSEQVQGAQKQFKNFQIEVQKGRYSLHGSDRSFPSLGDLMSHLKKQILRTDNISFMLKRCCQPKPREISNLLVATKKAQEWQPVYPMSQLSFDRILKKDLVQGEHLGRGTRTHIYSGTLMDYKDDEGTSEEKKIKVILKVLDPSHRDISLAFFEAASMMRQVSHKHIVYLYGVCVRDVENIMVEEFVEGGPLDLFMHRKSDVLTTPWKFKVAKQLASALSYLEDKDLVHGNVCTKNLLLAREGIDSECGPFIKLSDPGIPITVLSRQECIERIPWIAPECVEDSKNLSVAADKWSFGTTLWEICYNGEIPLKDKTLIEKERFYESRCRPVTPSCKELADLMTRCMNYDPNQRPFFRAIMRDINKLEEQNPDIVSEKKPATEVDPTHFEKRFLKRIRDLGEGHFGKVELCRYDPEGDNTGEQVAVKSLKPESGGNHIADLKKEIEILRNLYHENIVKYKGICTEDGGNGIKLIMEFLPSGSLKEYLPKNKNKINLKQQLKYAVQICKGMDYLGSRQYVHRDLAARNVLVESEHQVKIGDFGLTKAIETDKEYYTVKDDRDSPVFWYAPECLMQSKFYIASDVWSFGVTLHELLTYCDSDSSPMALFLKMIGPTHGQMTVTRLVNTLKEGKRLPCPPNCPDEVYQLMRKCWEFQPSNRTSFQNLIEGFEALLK
Description: as §1, §2, §3, §4, §5, §6, §7, §8, §9, §10, §11, §12, §13, §14, §15, §16, §17, §18, §19, §20, §21, §22

Chain of Tyk2 (P29597 whole entry): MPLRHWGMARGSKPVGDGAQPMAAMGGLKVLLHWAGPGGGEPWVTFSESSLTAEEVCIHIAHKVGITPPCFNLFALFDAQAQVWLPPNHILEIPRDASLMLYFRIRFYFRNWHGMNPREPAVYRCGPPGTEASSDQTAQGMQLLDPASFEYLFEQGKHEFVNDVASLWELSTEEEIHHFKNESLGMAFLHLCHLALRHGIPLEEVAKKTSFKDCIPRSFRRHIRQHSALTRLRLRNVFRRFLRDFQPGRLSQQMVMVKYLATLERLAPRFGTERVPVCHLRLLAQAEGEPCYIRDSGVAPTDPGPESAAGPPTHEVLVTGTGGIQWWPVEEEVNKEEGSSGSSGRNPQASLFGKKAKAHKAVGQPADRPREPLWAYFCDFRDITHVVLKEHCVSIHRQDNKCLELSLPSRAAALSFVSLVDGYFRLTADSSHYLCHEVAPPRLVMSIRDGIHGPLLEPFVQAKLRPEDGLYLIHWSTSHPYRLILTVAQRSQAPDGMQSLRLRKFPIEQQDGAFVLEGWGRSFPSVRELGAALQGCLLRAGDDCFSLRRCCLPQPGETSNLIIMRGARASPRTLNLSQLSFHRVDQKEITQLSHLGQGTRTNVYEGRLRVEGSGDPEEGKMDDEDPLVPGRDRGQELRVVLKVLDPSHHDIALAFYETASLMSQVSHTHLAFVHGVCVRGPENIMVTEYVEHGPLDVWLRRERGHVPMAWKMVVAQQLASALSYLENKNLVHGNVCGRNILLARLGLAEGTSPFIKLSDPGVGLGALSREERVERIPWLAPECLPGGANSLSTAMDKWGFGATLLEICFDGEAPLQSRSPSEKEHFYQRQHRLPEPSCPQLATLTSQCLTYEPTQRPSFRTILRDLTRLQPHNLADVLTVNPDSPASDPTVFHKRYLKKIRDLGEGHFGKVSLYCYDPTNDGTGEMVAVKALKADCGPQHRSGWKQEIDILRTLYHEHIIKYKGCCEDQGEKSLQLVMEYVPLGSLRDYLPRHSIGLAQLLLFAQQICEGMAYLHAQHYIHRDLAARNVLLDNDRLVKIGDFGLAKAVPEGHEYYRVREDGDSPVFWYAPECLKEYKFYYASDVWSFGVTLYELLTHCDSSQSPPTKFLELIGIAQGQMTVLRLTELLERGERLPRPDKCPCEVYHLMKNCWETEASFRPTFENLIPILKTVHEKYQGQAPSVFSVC

Turning to `Cn1cc(Nc2nccc(-c3ccc(NC(=O)CC(F)(F)F)c4[nH]ccc34)n2)cn1` [TDM-180870, 3,3,3-trifluoro-N-(4-(2-((1-methyl-1H-pyrazol-4-yl)amino)pyrimidin-4-yl)-1H-indol-7-yl)propanamide], the IC50 in assay [1] is 0.1 to 1 µM; in assay [2], below 0.1 µM.
For the compound `Cn1cc(Nc2nccc(-c3ccc(NS(=O)(=O)C4CCOCC4)nc3)n2)cn1` [TDM-180875, N-(5-(2-((1-methyl-1H-pyrazol-4-yl)amino)pyrimidin-4-yl)pyridin-2-yl)tetrahydro-2H-pyran-4-sulfonamide], the IC50 in assay [1] was 1 to 10 µM; in assay [2], 0.1 to 1 µM.
On to `Cn1cc(Nc2nccc(-n3ccc4c(NC(=O)C5CC5)cccc43)n2)cn1` [TDM-180876, N-(1-(2-((1-methyl-1H-pyrazol-4-yl)amino)pyrimidin-4-yl)-1H-indole-4-yl)cyclopropanemethane], for which the IC50 is 0.1 to 1 µM in assay [1] and below 0.1 µM in assay [2].
Regarding `CCOCCS(=O)(=O)Nc1ccc(-c2ccnc(Nc3cnn(C)c3)n2)cn1` [TDM-180877, 2-ethyoxyl-N-(5-(2-((1-methyl-1H-pyrazol-4-yl)amino)pyrimidin-4-yl)pyridin-2-yl)ethanesulfonamide], the results for the IC50 in assay [1] and in assay [2] were 1 to 10 µM and 0.1 to 1 µM, respectively.
Regarding `Cn1cc(Nc2nccc(-n3ccc4c(NC(=O)CC#N)cccc43)n2)cn1` [TDM-180881, 2-cyano-N-(1-(2-((1-methyl-1H-pyrazol-4-yl)amino)pyrimidin-4-yl)-1H-indol-4-yl)acetamide], the IC50 in assay [1] is 0.1 to 1 µM; in assay [2], below 0.1 µM.
For `Cn1cc(Nc2nccc(-n3ccc4c(NC(=O)CC(F)(F)F)cccc43)n2)cn1` [TDM-180882, 3,3,3-trifluoro-N-(1-(2-((1-methyl-1H-pyrazol-4-yl)amino)pyrimidin-4-yl)-1H-indol-4-yl)propanamide], in that order: 0.1 to 1 µM and below 0.1 µM.
For the compound `Cn1cc(Nc2nccc(-c3ccc(NC(=O)C4CC4)c4[nH]ncc34)n2)cn1` [TDM-180884, N-(4-(2-((1-methyl-1H-pyrazol-4-yl)amino)pyrimidin-4-yl)-1H-indazol-7-yl)cyclopropanemethane], the IC50 in assay [1] and in assay [2] was 0.1 to 1 µM each time.
Consider `Cn1cc(Nc2nccc(-n3ccc4c(NC(=O)C5CC5(F)F)cccc43)n2)cn1` (stereo not shown) [TDM-180885, 2,2-difluoro-N-(1-(2-((1-methyl-1H-pyrazol-4-yl)amino)pyrimidin-4-yl)-1H-indol-4-yl)cyclopropane-1-carboxamide], for which the IC50 is 0.1 to 1 µM in assay [1] and below 0.1 µM in assay [2].
Take `Cn1cc(Nc2nccc(-c3cnc(NC(=O)C4CC4(F)F)nc3)n2)cn1` (stereo not shown) [TDM-180886, 2,2-difluoro-N-(2-((1-methyl-1H-pyrazol-4-yl)amino)-[4,5′-bipyrimidin]-2′-yl)cyclopropane-1-carboxamide]: the results for the IC50 in assay [1] and in assay [2] were 0.1 to 1 µM and below 0.1 µM, respectively.
For `Cn1cc(Nc2nccc(-c3cnc(NC(=O)CC(F)(F)F)nc3)n2)cn1` [TDM-180887, 3,3,3-trifluoro-N-(2-((1-methyl-1H-pyrazol-4-yl)amino)-[4,5′-bipyrimidin]-2′-yl)propanamide], in that order: 1 to 10 µM and 0.1 to 1 µM.
Turning to `Cn1cc(Nc2nccc(-c3cnc(NC(=O)C4CC4(F)F)c(F)c3)n2)cn1` (stereo not shown) [TDM-180888, 2,2-difluoro-N-(3-fluoro-5-(2-((1-methyl-1H-pyrazol-4-yl)amino)pyrimidin-4-yl)pyridin-2-yl)cyclopropanecarboxamide], the IC50 in assay [1] and in assay [2] was 0.1 to 1 µM in each case.
For `Cn1cc(Nc2nccc(-c3cnc(NC(=O)CC(F)(F)F)c(F)c3)n2)cn1` [TDM-180889, 3,3,3-trifluoro-N-(3-fluoro-S-(2-((1-methyl-1H-pyrazol-4-yl)amino)pyrimidin-4-yl)pyridin-2-yl)propanamide], the figures for the IC50 in assay [1] and in assay [2] were 1 to 10 µM and 0.1 to 1 µM, respectively.
Turning to `Cn1cc(Nc2nccc(-c3cnc(NC(=O)CC#N)c(F)c3)n2)cn1` [TDM-180890, 2-cyano-N-(3-fluoro-5-(2-((1-methyl-1H-pyrazol-4-yl)amino)pyrimidin-4-yl)pyridin-2-yl)acetamide], the figures for the IC50 in assay [1] and in assay [2] were 1 to 10 µM and 0.1 to 1 µM, respectively.
Consider `Cn1cc(Nc2nccc(-c3cnc(NC(=O)C4CC4)c(F)c3)n2)cn1` [TDM-180891, N-(3-fluoro-5-(2-((1-methyl-1H-pyrazol-4-yl)amino)pyrimidin-4-yl)pyridin-2-yl)cyclopropanecarboxamide], for which the IC50 in assay [1] and in assay [2] was 1 to 10 µM in each case.
As to `Cn1cc(Nc2nccc(-c3cnc(NC(=O)C4CC4(F)F)cn3)n2)cn1` (stereo not shown) [TDM-180892, 2,2-difluoro-N-(5-(2-((1-methyl-1H-pyrazol-4-yl)amino)pyrimidin-4-yl)pyrazin-2-yl)cyclopropane-1-formamide], the IC50 in assay [1] lay within 1 to 10 µM; in assay [2] it was 0.1 to 1 µM.
As for `CCCS(=O)(=O)Nc1ccc(-c2ccnc(Nc3cnn(C)c3)n2)cc1` [TDM-180893, N-(4-(2-((1-methyl-1H-pyrazol-4-yl)amino)pyrimidin-4-yl)phenyl)propane-1-sulfonamide], the IC50 in assay [1] and in assay [2] was 0.1 to 1 µM in each case.
With `Cn1cc(Nc2nccc(-c3ccc(NS(=O)(=O)CCc4ccccc4)cc3)n2)cn1` [TDM-180894, N-(4-(2-((1-methyl-1H-pyrazol-4-yl)amino)pyrimidin-4-yl)phenyl)-2-phenylethane-1-sulfonamide], the IC50 in assay [1] and in assay [2] was 0.1 to 1 µM in each case.
Consider `Cn1cc(Nc2nccc(-c3ccc(NS(=O)(=O)CCC(F)(F)F)nc3)n2)cn1` [TDM-180895, 3,3,3-trifluoro-N-(5-(2-((1-methyl-1H-pyrazol-4-yl)amino)pyrimidin-4-yl)pyridin-2-yl)propane-1-sulfonamide], for which the values for the IC50 in assay [1] and in assay [2] were at least 10 µM and 1 to 10 µM, respectively.
Turning to `Cn1cc(Nc2nccc(-c3ccc(NS(=O)(=O)CCCF)cc3)n2)cn1` [TDM-180896, 3-fluoro-N-(4-(2-((1-methyl-1H-pyrazol-4-yl)amino)pyrimidin-4-yl)phenyl)propane-1-sulfonamide], the IC50 in assay [1] and in assay [2] was 0.1 to 1 µM each time.
For the compound `Cn1cc(Nc2nccc(-c3ccc(NS(=O)(=O)Cc4ccccc4)nc3)n2)cn1` [TDM-180897, N-(5-(2-((1-methyl-1H-pyrazol-4-yl)amino)pyrimidin-4-yl)pyridin-2-yl)-1-phenylmethanesulfonamide], the IC50 in assay [1] and in assay [2] was 0.1 to 1 µM throughout.
Turning to `Cn1cc(Nc2nccc(-c3ccc(NC(=O)CC#N)c4[nH]ncc34)n2)cn1` [TDM-180898, 2-cyano-N-(4-(2-((1-methyl-1H-pyrazol-4-yl)amino)pyrimidin-4-yl)-1H-indazole-7-yl)acetamide], the IC50 in assay [1] and in assay [2] was 0.1 to 1 µM in each case.
Turning to `Cn1cc(Nc2nccc(-c3ccc(NC(=O)C4CC4(F)F)c4[nH]ncc34)n2)cn1` (stereo not shown) [TDM-180899, 2,2-difluoro-N-(4-(2-((1-methyl-1H-pyrazol-4-yl)amino)pyrimidin-4-yl)-1H-indazol-7-yl)cyclopropane-1-carboxamide], the IC50 in assay [1] is 0.1 to 1 µM; in assay [2] it was below 0.1 µM.
Turning to `Cn1cc(Nc2nccc(-c3ccc(NC(=O)CC(F)(F)F)c4[nH]ncc34)n2)cn1` [TDM-180900, 3,3,3-trifluoro-N-(4-(2-((1-methyl-1H-pyrazol-4-yl)amino)pyrimidin-4-yl)-1H-indazol-7-yl)propionamide], the IC50 in assay [1] was 0.1 to 1 µM; in assay [2] it was below 0.1 µM.
